Data taken from patent US6265423A, “Aromatic polycyclic retinoid-type derivatives, method for preparing same, and use thereof for making pharmaceutical and cosmetic compositions” (priority 1996, dated 2001).
“Also recorded” adds a separate entry of the source.

Assays:
[1] = cited from earlier work
[2] = tested on: T-47D lineage; test: SAMBA image analysis test; assay type: cell-based, human
Excerpt: The molecules which have shown themselves to be the most interesting in the MTT test have been evaluated in an image analysis test called SAMBA. In effect, the recent advances in the field of image analysis have allowed new approaches to the evaluation of different cellular kinetic parameters and the measurement of the distribution of chromatin. The data thereby provided are processed using different statistical tests.
The use of the Systeme d'Analyses Microscopiques a Balayage Automatique 2005 (SAMBA 2005, Alcatel TITN, France), (System of Microscopic Analyses with Automatic Sweep 2005) permits measurement of the influence of the compounds researched at three levels:
The cells in exponential growth are cultured on small glass slip plates (Kiss R. et al. Eur. J. Cancer, 27, 1268-1274, 1991) at the rate of from […] cells/ml (depending on the cellular line being considered) in 3 ml of minimum essential medium (MEM, Gibco). […]
The interest in the Feulgen coloration resides in the possibility of colouring the DNA in a specific and stoichiometric fashion (Giroud F., Cell, 44, 177-188, 1982; Kiss R. et al., J. Histochem. Cytochem., 41, 6, 935-945, 1993). For each experimental condition, 900 nuclei are analysed by the image analyser. […]
These 15 parameters are calculated by specific software, from: […]

[3] = tested on: MCF-7 cells; test: Effect on oestrogen-induced proliferation of MCF-7 cells; assay type: cell-based, human; conditions: estradiol 10^-9 M
Procedure: MCF-7 cells and HeLa are cultivated in DMFM with phenol red to which 5% foetal calf serum is added. […] The experimental tests are carried out in DMEM without phenol red to which foetal calf serum treated with dextran carbon is added at 3%. […] The experiments using the different retinoids are carried out sheltered from the light so as to avoid any isomerisation.
So as to test the anti-proliferation effect of the retinoids, growth experiments under oestrogenic conditions were carried out on cells MCF-7 and T-47D. These are the human oestrogen-dependent mammary cancer cells which express the receptor to RE oestrogens. The effect of the molecules is evaluated after 7 days of culture in oestrogenic conditions (estradiol 10^-9 M) by dosing the cellular DNA. The cells are distributed in 24 well plates at a density of 2×10^4 cells per well. The tests with the different retinoids are carried out in triplicate and the culture medium is changed after 4 days of growth.

Structure (SMILES)	metabolism (in words) ([1]; chronic treatment)	adverse effects in chronic treatment (in words) [1]	morphonuclear / anti-tumoral effect (in words) [2]	effect on oestrogen-induced growth, MCF-7 (in words) [3]
CC1=C(/C=C/C(C)=C/C=C/C(C)=C/C(=O)O)C(C)(C)CCC1 [CB16178, all-trans retinoic acid, reference compound]	an inducer of its own metabolism	powerful effect of hypervitaminose, of mucocutaneous toxicity and of teratogenecity		
C/C(=C/c1ccc2c(c1)C(C)(C)CCC2(C)C)c1ccc(-c2nnn[nH]2)cc1 [CB92834]			not linked to a cytotoxic effect; also recorded: mediated by an activation of the cellular death and/or an inhibition of the proliferation due to the induction of the cellular differentiation	
C/C(=C\c1ccc(C(=O)O)cc1)c1ccc2c(c1)C(C)(C)CCC2(C)C [TTNPB, reference compound]			strongly suggests a direct correlation between the cytotoxic effect of the molecule and its anti-tumoral activity; also recorded: exercises its anti-tumoral activity through a direct cytotoxic (cytocidal) effect	stronger inhibiting effect than the natural ligands (all-trans RA and 9-cis RA) and than LGD1069
